Laboratory results reported in article PMC11475369, “Exploring the Potential of Synthetic Cannabinoids: Modulation of Biological Activity of Normal and Cancerous Human Colon Epithelial Cells” (Cells, 2024).
In brackets after ≈: the same amount, converted by molar mass.

Tests used:
HT29 cells [1] = test: MTT assay, metabolic activity of HT29 cells; assay type: cell-based; settings: Homo sapiens, HT-29; HT29 colon tumor cells, 24 h incubation; read-out: IC50 Values (MTT method)
Protocol: (§1) The HT29 cell line (ATCC no. HTB-38) (human colon adenocarcinoma) was used in the present study. Cells were cultivated in RPMI 1640 culture medium with 10% fetal calf serum (FCS) (GibcoTM, Paisley, UK), supplemented with antibiotics (100 U/mL penicillin and 100 μg/mL streptomycin) (Sigma, St. Louis, MO, USA). The cell culture was performed in standard conditions, i.e., at 37 °C in a humidified atmosphere with 5% CO2. The CCD 841 CoTr cell line (ATCC no. CRL-1807) (human normal colon epithelium) was cultivated in RPMI 1640 +DMEM (1:1) medium (Sigma, St. Louis, MO, USA) with 10% FCS and the addition of antibiotics. The culture was carried out at 34 °C in a 5% CO2/95% air atmosphere.
(§2) After seeding (1 × 10^5 cells/mL) in a 96-well plate, the cells were incubated for 24 h. Thereafter, the tested compounds (100 μL) at a concentration range of 0–200 μg/mL in the culture medium were added to the wells (100 μL). The incubation lasted for 24 h. After that time, an MTT solution (5 mg/mL, 25 μL/well) was added to each well. The incubation was continued for another 3 h. After the incubation, 10% sodium dodecyl sulfate (SDS) in 0.01 M HCl (100 μL) was added in order to dissolve the purple formazan crystals. Solubilization was carried out overnight. Finally, spectrophotometric measurement was performed at 570 nm using an EL800 Universal Microplate Reader (BioTek Instruments, Winooski, VT, USA).

CCD 841 CoTr cells [2] = test: MTT assay, metabolic activity of CCD 841 CoTr cells; assay type: cell-based, human; settings: Homo sapiens, CCD-841, 24 h, CCD 841 CoTr colon normal cells, 24 h incubation; read-out: IC50 Values (MTT method)
Protocol: as §1, §2

HT29 cells [3] = test: Neutral Red (NR) uptake assay, viability of HT29 cells; assay type: cell-based; settings: Homo sapiens, HT-29; HT29 colon tumor cells, 24 h incubation
Protocol: as §1
(§3) After seeding (1 × 10^5 cells/mL) in a 96-well plate, the cells were incubated for 24 h. Thereafter, the tested compounds (100 μL) at a concentration range of 0–200 μg/mL in the culture medium were added to the wells (100 μL). The incubation lasted for 24 h. After that time, the culture medium was removed and a 0.4% Neutral Red solution in the culture medium was added to each well. The incubation was continued for another 3 h. After the incubation, the medium with the NR dye was discarded, and 4% paraformaldehyde in 1% CaCl2 was added for cell fixation (200 μL) and incubated for 3 min. Intracellular dye deposits were solubilized using 1% […] in a 50% ethanol solution (100 μL). The plates were then gently shaken (20 min.) at room temperature to dissolve and release the dye from the cells. Finally, spectrophotometric measurement was performed at 540 nm using an EL800 Universal Microplate Reader (BioTek Instruments, Winooski, VT, USA).

CCD 841 CoTr cells [4] = test: Neutral Red (NR) uptake assay, viability of CCD 841 CoTr cells; assay type: cell-based; settings: Homo sapiens; CCD 841 CoTr colon normal cells, 24 h incubation
Protocol: as §1, §3

HT29 cells [5] = test: Flow cytometry annexin V-FITC/PI, cell death types in HT29 cells; assay type: cell-based, human; settings: HT29, 25 μg/mL, 24 h
Protocol: (§4) In a further flow cytometric study measuring normal and tumor cell death types, the cells were exposed to the cannabinoids at a concentration of 25 μg/mL for 24 h.
(§5) The annexin V-fluorescein isothiocyanate (FITC)/propidium iodide (PI) apoptosis kit (BD Biosciences, BD Pharmingen™, San Jose, CA, USA) was used for the quantitative analysis of cannabinoid-induced cell death.
(§6) For the analyses, both adhered (after detaching the cells with 10 mM EDTA in PBS w/o Ca^2+ and Mg^2+ ions solution) and floating cells were collected after 24 h of incubation with the tested cannabinoids. After collection, the cells were gently centrifuged (1000 rpm/5 min.). Next, the supernatant was discarded, and the cell pellet was suspended in warm PBS w/o Ca^2+ and Mg^2+ ions and incubated for 5 min. at room temperature. The centrifugation procedure was repeated again and, following the manufacturer’s procedure, the cells were suspended in 100 μL of 1X Annexin V Binding Buffer with 5 μL of FITC Annexin V […] and 5 μL of propidium iodide (PI) (5 mM). The preparation was gently vortexed and incubated at room temperature for 15 min. in the dark. After that time, the cells were subjected to cytometric analysis. Before dosing the cells into the cytometer, 400 μL of 1X Binding Buffer was added. The cells were analyzed using a flow cytometer (BD FACSCalibur) with CellQuest Pro Version 6.0 software within 1 h after the staining was completed.

[6] = Flow cytometry annexin V-FITC/PI, cell death types in CCD 841 CoTr cells; assay type: cell-based, human; settings: human, CCD 841 CoTr cells (normal cells), read-out: Percentage of viable cells
Protocol: as §4, §5, §6

CCD 841 CoTr cells [7] = test: as above; assay type: cell-based, human; settings: 25 μg/mL, 24 h
Protocol: as §4, §5, §6

CCD 841 CoTr cells [8] = test: Flow cytometry (PI) cell cycle analysis of CCD 841 CoTr cells; assay type: cell-based, human; settings: 25 μg/mL, 24 h
Protocol: In the flow cytometric study, we assessed the impact of the cannabinoids at a concentration of 25 μg/mL on the distribution of cell cycle phases in the normal and cancer cells after 24 h incubation. Both adhered, and non-adsorbed (floating) cells were used to perform the analyses. They were collected after 24 h of incubation with the tested cannabinoids and centrifuged (3000 rpm/5 min.). Next, the cell pellet was rinsed and suspended in PBS w/o Ca^2+ and Mg^2+ ions and centrifuged again (3000 rpm/5 min.). The cell pellet was suspended and fixed in 70% ethanol (1 mL). Untreated cells served as a control. The cells were stored at −20 °C for 1 week. After that time, in accordance with the manufacturer protocol, the cells were subjected to the PI staining procedure (PI/RNase Staining Buffer, BD PharmingenTM, BD Biosciences, San Jose, CA, USA). Briefly, 1 mL of PBS w/o Ca^2+ and Mg^2+ ions was added to 1 mL of ethanol and incubated with gentle stirring for 5 min. at room temperature. Next, the cells were centrifuged (3000 rpm/5 min.) and suspended in PBS w/o Ca^2+ and Mg^2+ ions with gentle stirring for 5 min. at room temperature. The cells were centrifuged once again (3000 rpm/5 min.) and the cell pellet was suspended in 500 μL of PI/RNase Staining Buffer. The incubation was carried out for 15 min. at room temperature. Finally, the intensity of the PI fluorescence was measured using FACS Calibur (BD Pharmingen^TM). The obtained data were analyzed using Cell Quest Pro Version 6.0. for the Macintosh operating system (BD Pharmingen^TM). The percentage of cells in the appropriate phases of the cycle was calculated based on all analyzed gated cells. A total of 10,000 events were measured per sample.

CCD 841 CoTr cells [9] = test: Nitric oxide (NOx) release in CCD 841 CoTr culture, Griess method; assay type: cell-based, human; settings: CCD 841 CoTr normal cells, 0–200 μg/mL, 24 h
Protocol: In this spectrophotometric method, the stable end products (nitrate and nitrite) were analyzed in the normal and tumor culture supernatants after 24 h of incubation of the cells with the cannabinoids in the concentration range of 0–200 μg/mL. The Griess reaction was applied. This method involves a 2-step reaction, whose product is a red-pink azo dye. The amount of this dye is directly proportional to the amount of NO. The cells were cultured for 24 h in 24-well plates (1 mL/well, density 1 × 10^5 cells/mL); next, after withdrawing the culture fluid, the tested cannabinoids were added to the wells at a volume of 1 mL/well and the incubation was carried out for another 24 h. After the incubation, the culture media were collected and frozen at −80 °C for no longer than 1 month. For calibration and quantitative analysis, the standard curve was prepared using 0.5–25 μM sodium nitrite (NaNO2). Thawed and centrifuged (5000 rpm/5 min.) supernatant samples and the standard were poured into a 96-well flat-bottomed plate at 100 µL/well. Each sample was analyzed in triplicate. Subsequently, 100 µL/well of Griess reagent (1% sulfanilamide/0.1% N-(1-naphthyl)ethylenediamine dihydrochloride) in 3% H3PO4 was added to all wells and incubated at room temperature for 10 min. Finally, the absorbance of the samples was spectrophotometrically read at 570 nm using an EL800 Universal Microplate Reader (BioTek Instruments, Winooski, VT, USA).

C=C(C)[C@@H]1CCC(C)=C[C@H]1c1c(O)cc(CCCCC)cc1O [CBD, cannabidiol]
IC50 (HT29 cells [1]): 57.5 µg/mL (≈ 183 µM) | IC50 (CCD 841 CoTr cells [2]): 42.6 µg/mL (≈ 135 µM) | IC50 (HT29 cells [3]): 60.5 µg/mL (≈ 192 µM) | IC50 (CCD 841 CoTr cells [4]): 48.2 µg/mL (≈ 153 µM) | Percentage of cells in early apoptosis (HT29 cells [5]): 0.77 ± 0.21% | Percentage of cells in late apoptosis (HT29 cells [5]): 17.03 ± 0.29 % | Percentage of cells in necrosis (HT29 cells [5]): 0.67 ± 0.22% | Reduction in the number of viable cells compared to the control (HT29 cells [5]): 13.62% | viability at 25 µg/mL (HT29 cells [5]; Homo sapiens, HT-29, read-out: Percentage of viable cells): 81.54 ± 0.28% | viability at 24 h, 25 μg/mL [6]: 79.4 ± 1.18% | Cells in late apoptosis, more than in the control (CCD 841 CoTr cells [7]): 11.36% | Cells in necrosis, more than in the control (CCD 841 CoTr cells [7]): 1.43% | Percentage of cells in early apoptosis (CCD 841 CoTr cells [7]): 1.97 ± 0.19% | Percentage of cells in late apoptosis (CCD 841 CoTr cells [7]): 16.96 ± 1.26 % | Percentage of cells in necrosis (CCD 841 CoTr cells [7]): 1.71 ± 0.28 % | Reduction in the number of viable normal cells compared to the control (CCD 841 CoTr cells [7]): 12.95% | Increase in the number of cells in the sub-G1 phase compared to the control (CCD 841 CoTr cells [8]): 21.88% | Percentage of cells in G1 phase (CCD 841 CoTr cells [8]): 21.89 ± 0.34 % | Percentage of cells in G2 phase (CCD 841 CoTr cells [8]): 14.10 ± 0.19 % | Percentage of cells in S phase (CCD 841 CoTr cells [8]): 16.39 ± 0.04 % | Percentage of cells in sub-G1 phase (CCD 841 CoTr cells [8]): 44.01 ± 0.37 % | Effect on release of nitric oxide NOx (in words) (CCD 841 CoTr cells [9]): increase in NOx levels with increasing concentration
